Laboratory results reported in patent US8722725B2, “Caffeoylquinic acid derivatives containing nitrogen, and preparation method, pharmaceutical composition and usage thereof” (Zhejiang Medicine Co., Ltd. Xinchang Pharmaceutical Factory, priority 2007, dated 2014).
In brackets after ≈: the same amount, converted by molar mass. Where two headings read alike, the source gives them in different places.

What was measured:
Format in all cases: cell-based
[1] = test system: human hepatoma carcinoma cells (Hep G2) 2.2.15 cell line; assay: Cell toxicity in 2.2.15 cells (cytopathic cells observed for 8 days, Reed-Muench)
Protocol: (§1) Anti-hepatitis (HBV) DNA virus in vitro of the above partial compounds is tested. human hepatoma carcinoma cells (Hep G2) in the 2.2.15 cell line are transfected by DNA cloning of hepatitis B virus (HBV), the inhibitory effect on cell toxicity and HBV DNA secretion are studied. Half inhibition concentration (IC50) and half toxicity concentration (TC50) of samples are measured, the inhibition ratio to HBV DNA in the 2.2.15 cell culture are obtained respectively.
Virus strains: human hepatoma carcinoma cells (Hep G2) in 2.2.15 cell line are transfected by DNA cloning of hepatitis B virus (HBV).
Sample treatment: the sample is prepared for a suitable concentration by being dissolved in DMSO and preserved at 4° C. before using. When using, the required concentration is prepared by using a 2.2.15 cell culture medium.
Test method: The sample is prepared for a 20 mg/ml mother liquor, and is further prepared for a required concentration by using a 2.2.15 cell culture medium. Then the above solution is diluted to 5 times from 200 μg/ml with the culture medium to form eight kinds of concentrations. The above solution is added to a 96-well cell plate, each of concentration is placed in 3 wells, and the medical solution with the same concentration is changed every 4 days. Cell control group without drug is set to observe cytopathic cell as a target, the cytopathic cell is observed under a microscope for 8 days, wherein full destruction is about 4; 75% of cytopathic cells are about 3; 50% of cytopathic cells are about 2; 25% of cytopathic cells are about 1; no cytopathic cells is about 0. Mean cytopathic extent and inhibition ratio of medical solutions for each concentration are calculated. Half toxicity concentration (TC50) and its maximum of non toxicity concentration (TC0) are respectively calculated by the method of Reed-Muench. According to the method of molecular cloning experimental technology, firstly the HBV DNA is extracted from 2.2.15 cells of medical solution of each concentration group and cell control groups, and then a dot blot hybridization and autoradiography of each sample are measured. After measuring IOD value or OD value of every hybridization dot, the inhibition ratio is calculated.

T-lymphocyte MT-4 = assay: Cell toxicity in MT-4 cells by method of CPE (96 h)
Protocol: (§2) Anti-HIV-1 IIIB/H9 in vitro of the above partial compounds is tested. Half inhibition concentration (IC50) of samples and half toxicity concentration (TC50) of samples are respectively measured after culturing MT-4 cells, wherein the cell toxicity is measured by the method of CPE, and the inhibitory effects on HIV-1 IIIB of compounds are measured by method of measuring P24 antigen of cell culture supernatant.
Test method: The toxicity of drug in cell (TC50 and TC0) is measured by method of CPE. 100 μl cell is inoculated in 96-well plate at a density of 2×10^5 cells/ml. In the meantime, the medical solution 100 μl of 8 kinds of concentration of samples or positive drug zidovudine which are respectively diluted to 3 times are respectively added thereto, each of concentration is placed in 3 wells which are set to a cell control group. The above plates is cultured at the incubator of 37° C., 5% CO2 and a saturated humidity. CPE Cells are observed at the fourth day (96 h) after adding drug, the cytopathic situation is recorded and TC50 and TC0 are calculated.

[2] = test system: respiratory syncytial virus (RSV), Long strain; assay: Inhibitory effect on anti-RSV in vitro (CPE in Hep-2 cells, 72 h, Reed-Muench); conditions: human respiratory syncytial virus, read-out: IC50 (half inhibition concentration, RSV)
Protocol: Anti-RSV in vitro of the above partial compounds is tested. With Hep-2 cell (human laryngocarcinoma cell) as viral host, Hep-2 cytopathic extent caused by inhibiting RSV is measured and observed for 72 h. Half inhibition concentration (IC50) of samples with respect to respiratory syncytial virus (RSV), its maximum of non toxicity concentration (TC0) and half toxicity concentration (TC50) of samples with respect to Hep-2 cell are respectively calculated by methods of Reed-Muench.
Virus strains: RSV, Long strain
Sample treatment: before using, sample is prepared for a suitable concentration by being dissolved in DMSO, and is diluted to 3 times with a culture medium to form eight dilutions.
Positive control drug: ribavirin (RBV)
(§3) Test method: After Hep-2 cell is cultured in 96-well plate for 24 h, it is infected respiratory syncytial virus (RSV) (200TCID50 infective dose) and absorbed for 4 h to get a viral liquid. Then the viral liquid is discarded. The sample is added thereto according to the above eight dilutions, in the meantime cell control wells of positive drugs, normal cell control wells and viral control wells are set. The cytopathic extent (CPE) is observed for 72 h. Half inhibition concentration (IC50) of samples with respect to respiratory syncytial virus (RSV), its maximum of no toxicity concentration (TC0) and half toxicity concentration (TC50) of samples with respect to Hep-2 cells are respectively calculated by method of Reed-Muench.

[3] = test system: Hep-2 cell (human laryngocarcinoma cell); assay: Toxicity of samples with respect to Hep-2 cell (CPE, Reed-Muench); conditions: 72 h
Protocol: as §3, with “Anti-RSV in vitro of the above partial compounds is tested. With Hep-2 cell (human laryngocarcinoma cell) as viral host, Hep-2 cytopathic extent caused by inhibiting RSV is measured and observed for 72 h. Half inhibition concentration (IC50) of samples with respect to respiratory syncytial virus (RSV), its maximum of non toxicity concentration (TC0) and half toxicity concentration (TC50) of samples with respect to Hep-2 cell are respectively calculated by methods of Reed-Muench. Sample treatment: before using, sample is prepared for a suitable concentration by being dissolved in DMSO, and is diluted to 3 times with a culture medium to form eight dilutions. Test” for “Test”

[4] = test system: hepatitis B virus (HBV) DNA; assay: Inhibition of HBV DNA in 2.2.15 cell culture (dot blot hybridization, autoradiography); conditions: concentration not given
Protocol: as §1
Virus strains: human hepatoma carcinoma cells (Hep G2) in 2.2.15 cell line are transfected by DNA cloning of hepatitis B virus (HBV). […]
Test method: The sample is prepared for a 20 mg/ml mother liquor, and is further prepared for a required concentration by using a 2.2.15 cell culture medium. […] Mean cytopathic extent and inhibition ratio of medical solutions for each concentration are calculated. Half toxicity concentration (TC50) and its maximum of non toxicity concentration (TC0) are respectively calculated by the method of Reed-Muench. According to the method of molecular cloning experimental technology, firstly the HBV DNA is extracted from 2.2.15 cells of medical solution of each concentration group and cell control groups, and then a dot blot hybridization and autoradiography of each sample are measured. After measuring IOD value or OD value of every hybridization dot, the inhibition ratio is calculated.

HIV-1 IIIB virus strain = assay: Inhibitory effect on HIV-1 IIIB in MT-4 cells (P24 antigen ELISA of cell culture supernatant); conditions: Human immunodeficiency virus 1, IIIB, MT4, 96 h, read-out: IC50 (half inhibition concentration, HIV-1 IIIB)
Protocol: as §2
Virus strains: HIV-1 IIIB virus strain
Sample treatment: before using, the sample is prepared for a suitable concentration by being dissolved in DMSO and then is further prepared for a cell culture medium.
Positive control drug: Zidovudine (AZT)
HIV-1 P24 antigen detection kit: Use products of BioMerieux Corporation in Holland.
HIV-1 P24 antigen is measured by the method of ELISA. After counting the MT-4 cells, the cells are infected in the virus dose of 100TCID50 and absorbed for 1.5 h in the incubator of 37° C., 5% CO2 and a saturated humidity. The cells are inoculated in a 96-well plate at the density of 2×10^5 cells/ml. After adding a diluted drug 100 ul/well, the culture of the plate is cultured at the incubator of 37° C., 5% CO2 and a saturated humidity for 4 days (96 h). Cell supernatant is taken out and diluted in the ratio of 1:3000. HIV-1 P24 titer is measured according to the test steps provided by HIV-1 P24 antigen kit. Compared adding drug groups with viral control groups, half inhibition concentration (IC50) of samples and half toxicity concentration (TC50) of samples are respectively calculated

[5] = RSV Long strain in Hep-2 cell, CPE, 72 h

| SMILES | Cell toxicity TC0 [1] [µg/mL] | Cell toxicity TC50 [1] [µg/mL] | TC50 (half toxicity concentration) (T-lymphocyte MT-4; human) [µg/mL] | IC50 [2, 5] [µg/mL] | TC0 (maximum of non toxicity concentration) [3] [µg/mL] | TC50 (half toxicity concentration) [3] [µg/mL] | HBV DNA Inhibition ratio (%) [4] | IC50 (HIV-1 IIIB virus strain) [µg/mL] | TC50 (half toxicity concentration) (T-lymphocyte MT-4; MT-4 cells, CPE) [µg/mL] | IC50 ([2]; HEp-2, 72 h) [µg/mL] |
| --- | --- | --- | --- | --- | --- | --- | --- | --- | --- | --- |
| CNC(=O)[C@]1(O)C[C@@H](OC(=O)/C=C/c2ccc(O)c(O)c2)[C@@H](OC(=O)/C=C/c2ccc(O)c(O)c2)[C@H](OC(=O)/C=C/c2ccc(O)c(O)c2)C1 [3-7] | >200 | >200 | 32.08 (≈ 46.4 µM) | > 64.2 | 37.04 | 64.15 (≈ 92.8 µM) | 41.71% | 1.02 (≈ 1.47 µM) | – | – |
| Nc1ccn([C@@H]2CS[C@H](CO)O2)c(=O)n1 [3TC, lamivudine, reference compound] | – | – | – | – | – | – | 40.8~49.39% | – | – | – |
| O=C(/C=C/c1ccc(O)c(O)c1)O[C@@H]1C[C@](OC(=O)/C=C/c2ccc(O)c(O)c2)(C(=O)N2CCCC2)C[C@@H](O)[C@H]1O [2-3] | 0.32 | 3.58 | – | > 12.3 | 4.12 | 12.35 (≈ 21.7 µM) | – | – | – | – |
| O=C(/C=C/c1ccc(O)c(O)c1)O[C@@H]1C[C@](O)(C(=O)NC2CC2)C[C@@H](OC(=O)/C=C/c2ccc(O)c(O)c2)[C@H]1O [1-1] | 1.6 | 27.59 | – | > 111 | 37.04 | 111.11 (≈ 200 µM) | – | – | – | – |
| CNC(=O)[C@]1(O)C[C@@H](O)[C@@H](O)[C@H](OC(=O)/C=C/c2ccc(O)c(O)c2)C1 [3-5] | 8 | 89.44 | – | 7.13 (≈ 19.4 µM) | 12.35 | 37.04 (≈ 101 µM) | – | – | – | – |
| Cc1cn([C@H]2C[C@H](N=[N+]=[N-])[C@@H](CO)O2)c(=O)[nH]c1=O [AZT, zidovudine, reference compound] | – | – | – | – | – | – | – | 0.0042 (≈ 0.0157 µM) | 20.00 (≈ 74.8 µM) | – |
| CNC(=O)[C@]1(O)C[C@@H](OC(=O)/C=C/c2ccc(O)c(O)c2)[C@@H](O)[C@H](OC(=O)/C=C/c2ccc(O)c(O)c2)C1 [3-1] | 1.6 | 27.59 | 32.08 (≈ 60.6 µM) | 16.2 (≈ 30.7 µM) | 37.04 | 64.15 (≈ 121 µM) | – | 1.83 (≈ 3.46 µM) | – | – |
| NC(=O)c1ncn([C@@H]2O[C@H](CO)[C@@H](O)[C@H]2O)n1 [RBV, Ribavirin, reference compound] | – | – | – | – | – | – | – | – | – | 1.37 (≈ 5.61 µM) |
| CNC(=O)[C@]1(OC(=O)/C=C/c2ccc(O)c(O)c2)C[C@@H](O)[C@@H](O)[C@H](OC(=O)/C=C/c2ccc(O)c(O)c2)C1 [3-3] | 0.32 | 3.58 | – | > 111 | 37.04 | 111.11 (≈ 210 µM) | – | – | – | – |
